From the supplement of paper PMC4862054

Assays:
Assay in all cases: drug sensitivity score (DSS), CellTiter-Glo (DSS (AUC-based score)); higher = stronger drug effect (viability inhibition or cytotoxicity); extreme values may be limits of the assay
Settings in all cases: incubation time: 72 h
BT-474 = system: BT-474
In short: (§1)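 Each compound occupied 5 concentrations in 10-fold steps over its own 10,000-fold range in 384-well plates, into which breast cancer cell lines were seeded as 20 µl suspension. Following 72 h of incubation, CellTox Green fluorescence (485/520 nm) was measured, and CellTiter-Glo luminescence was measured after 10 min at room temperature. Plates were individually normalised to 0.1 % DMSO and a positive kill control. From the area under the fitted dose-response curve, a drug sensitivity score was calculated.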

SK-BR-3 = system: SK-BR-3
In short: as §1

CAL-148 = system: CAL-148
In short: as §1

BT-549 = system: BT-549
In short: as §1

DU-4475 = system: DU-4475
In short: as §1

CAL-120 = system: CAL-120
In short: as §1

HDQ-P1 = system: HDQ-P1
In short: as §1

MFM-223 = system: MFM-223
In short: as §1

MCF-10A = system: MCF-10A
In short: as §1

HCC1143 = system: HCC1143
In short: as §1

MDA-MB-468 = system: MDA-MB-468
In short: as §1

CAL-51 = system: CAL-51
In short: as §1

HCC1599 = system: HCC1599
In short: as §1

MDA-MB-453 = system: MDA-MB-453
In short: as §1

CAL-85-1 = system: CAL-85-1
In short: as §1

MDA-MB-231 = system: MDA-MB-231
In short: as §1

HCC1937 = system: HCC1937
In short: as §1

MDA-MB-436 = system: MDA-MB-436
In short: as §1

Hs578T = system: Hs578T
In short: as §1

## Cn1cc(C2=C(c3cn(C4CCN(Cc5ccccn5)CC4)c4ccccc34)C(=O)NC2=O)c2ccccc21 [Enzastaurin]
BT-474
  drug sensitivity score: 0
SK-BR-3
  drug sensitivity score: 0
CAL-148
  drug sensitivity score: 0
BT-549
  drug sensitivity score: 0
DU-4475
  drug sensitivity score: 0
CAL-120
  drug sensitivity score: 0
HDQ-P1
  drug sensitivity score: 0
MFM-223
  drug sensitivity score: 0
MCF-10A
  drug sensitivity score: 0
HCC1143
  drug sensitivity score: 0
MDA-MB-468
  drug sensitivity score: 0
CAL-51
  drug sensitivity score: 0
HCC1599
  drug sensitivity score: 0
MDA-MB-453
  drug sensitivity score: 0
CAL-85-1
  drug sensitivity score: 0
MDA-MB-231
  drug sensitivity score: 0
HCC1937
  drug sensitivity score: 0
MDA-MB-436
  drug sensitivity score: 0
Hs578T
  drug sensitivity score: 0

## Cc1nc(C(=O)NCC(=O)O)c(O)c2ccc(Oc3ccccc3)cc12 [FG-4592]
BT-474
  drug sensitivity score: 0
SK-BR-3
  drug sensitivity score: 0
CAL-148
  drug sensitivity score: 0
BT-549
  drug sensitivity score: 0
DU-4475
  drug sensitivity score: 0
CAL-120
  drug sensitivity score: 0
HDQ-P1
  drug sensitivity score: 0
MFM-223
  drug sensitivity score: 0
MCF-10A
  drug sensitivity score: 0
HCC1143
  drug sensitivity score: 0
MDA-MB-468
  drug sensitivity score: 0
CAL-51
  drug sensitivity score: 0
HCC1599
  drug sensitivity score: 0
MDA-MB-453
  drug sensitivity score: 0
CAL-85-1
  drug sensitivity score: 0
MDA-MB-231
  drug sensitivity score: 0
HCC1937
  drug sensitivity score: 0
MDA-MB-436
  drug sensitivity score: 0
Hs578T
  drug sensitivity score: 0

## CC(C)(C)NC(=O)[C@H]1CC[C@H]2[C@@H]3CC[C@H]4NC(=O)C=C[C@]4(C)[C@H]3CC[C@]12C [Finasteride]
BT-474
  drug sensitivity score: 0
SK-BR-3
  drug sensitivity score: 0
CAL-148
  drug sensitivity score: 0
BT-549
  drug sensitivity score: 0
DU-4475
  drug sensitivity score: 0
CAL-120
  drug sensitivity score: 0
HDQ-P1
  drug sensitivity score: 0
MFM-223
  drug sensitivity score: 0
MCF-10A
  drug sensitivity score: 0
HCC1143
  drug sensitivity score: 0
MDA-MB-468
  drug sensitivity score: 0
CAL-51
  drug sensitivity score: 0
HCC1599
  drug sensitivity score: 0
MDA-MB-453
  drug sensitivity score: 0
CAL-85-1
  drug sensitivity score: 0
MDA-MB-231
  drug sensitivity score: 0
HCC1937
  drug sensitivity score: 0
MDA-MB-436
  drug sensitivity score: 0
Hs578T
  drug sensitivity score: 0

## Nc1ccn([C@@H]2O[C@H](CO)[C@@H](O)C2(F)F)c(=O)n1 [Gemcitabine]
BT-474
  drug sensitivity score: 3.22
SK-BR-3
  drug sensitivity score: 13.6
CAL-148
  drug sensitivity score: 10.6
BT-549
  drug sensitivity score: 14.7
DU-4475
  drug sensitivity score: 4.13
CAL-120
  drug sensitivity score: 3.04
HDQ-P1
  drug sensitivity score: 1.57
MFM-223
  drug sensitivity score: 0
MCF-10A
  drug sensitivity score: 5.69
HCC1143
  drug sensitivity score: 14.5
MDA-MB-468
  drug sensitivity score: 19.7
CAL-51
  drug sensitivity score: 16.7
HCC1599
  drug sensitivity score: 12.8
MDA-MB-453
  drug sensitivity score: 4.36
CAL-85-1
  drug sensitivity score: 12.4
MDA-MB-231
  drug sensitivity score: 0
HCC1937
  drug sensitivity score: 0
MDA-MB-436
  drug sensitivity score: 16.8
Hs578T
  drug sensitivity score: 4.8

## CC(C)C[C@H](NC(=O)[C@@H](COC(C)(C)C)NC(=O)[C@H](Cc1ccc(O)cc1)NC(=O)[C@H](CO)NC(=O)[C@H](Cc1c[nH]c2ccccc12)NC(=O)[C@H](Cc1cnc[nH]1)NC(=O)[C@@H]1CCC(=O)N1)C(=O)N[C@@H](CCCNC(=N)N)C(=O)N1CCC[C@H]1C(=O)NNC(N)=O [Goserelin]
BT-474
  drug sensitivity score: 0
SK-BR-3
  drug sensitivity score: 0
CAL-148
  drug sensitivity score: 0
BT-549
  drug sensitivity score: 0
DU-4475
  drug sensitivity score: 0
CAL-120
  drug sensitivity score: 0
HDQ-P1
  drug sensitivity score: 0
MFM-223
  drug sensitivity score: 0
MCF-10A
  drug sensitivity score: 0
HCC1143
  drug sensitivity score: 0
MDA-MB-468
  drug sensitivity score: 0
CAL-51
  drug sensitivity score: 0
HCC1599
  drug sensitivity score: 0
MDA-MB-453
  drug sensitivity score: 0
CAL-85-1
  drug sensitivity score: 0
MDA-MB-231
  drug sensitivity score: 0
HCC1937
  drug sensitivity score: 0
MDA-MB-436
  drug sensitivity score: 0
Hs578T
  drug sensitivity score: 0

## O=C(O)CNC(=O)c1c(O)c2ccccc2n(Cc2ccccc2)c1=O [IOX-2]
BT-474
  drug sensitivity score: 0
SK-BR-3
  drug sensitivity score: 0
CAL-148
  drug sensitivity score: 0
BT-549
  drug sensitivity score: 0.135
DU-4475
  drug sensitivity score: 0
CAL-120
  drug sensitivity score: 0
HDQ-P1
  drug sensitivity score: 0
MFM-223
  drug sensitivity score: 0
MCF-10A
  drug sensitivity score: 0
HCC1143
  drug sensitivity score: 0
MDA-MB-468
  drug sensitivity score: 0
CAL-51
  drug sensitivity score: 3.96
HCC1599
  drug sensitivity score: 0
MDA-MB-453
  drug sensitivity score: 0
CAL-85-1
  drug sensitivity score: 0
MDA-MB-231
  drug sensitivity score: 0
HCC1937
  drug sensitivity score: 0
MDA-MB-436
  drug sensitivity score: 0
Hs578T
  drug sensitivity score: 0

## CC(=O)[C@]1(O)Cc2c(O)c3c(c(O)c2[C@@H](O[C@H]2C[C@H](N)[C@H](O)[C@H](C)O2)C1)C(=O)c1ccccc1C3=O [Idarubicin]
BT-474
  drug sensitivity score: 4.44
SK-BR-3
  drug sensitivity score: 7.9
CAL-148
  drug sensitivity score: 10.5
BT-549
  drug sensitivity score: 9.35
DU-4475
  drug sensitivity score: 8.12
CAL-120
  drug sensitivity score: 1.91
HDQ-P1
  drug sensitivity score: 1.38
MFM-223
  drug sensitivity score: 3.67
MCF-10A
  drug sensitivity score: 3.11
HCC1143
  drug sensitivity score: 3.11
MDA-MB-468
  drug sensitivity score: 9.11
CAL-51
  drug sensitivity score: 14.5
HCC1599
  drug sensitivity score: 3.71
MDA-MB-453
  drug sensitivity score: 1.75
CAL-85-1
  drug sensitivity score: 6.75
MDA-MB-231
  drug sensitivity score: 4.79
HCC1937
  drug sensitivity score: 2.31
MDA-MB-436
  drug sensitivity score: 8.24
Hs578T
  drug sensitivity score: 6.15

## C/C(=C\c1csc(C)n1)[C@@H]1C[C@@H]2O[C@]2(C)CCC[C@H](C)[C@H](O)[C@@H](C)C(=O)C(C)(C)[C@@H](O)CC(=O)N1 [Ixabepilone]
BT-474
  drug sensitivity score: 1.23
SK-BR-3
  drug sensitivity score: 0
CAL-148
  drug sensitivity score: 0
BT-549
  drug sensitivity score: 13.9
DU-4475
  drug sensitivity score: 0
CAL-120
  drug sensitivity score: 0
HDQ-P1
  drug sensitivity score: 0
MFM-223
  drug sensitivity score: 0
MCF-10A
  drug sensitivity score: 0
HCC1143
  drug sensitivity score: 0
MDA-MB-468
  drug sensitivity score: 13.9
CAL-51
  drug sensitivity score: 14.8
HCC1599
  drug sensitivity score: 0
MDA-MB-453
  drug sensitivity score: 0
CAL-85-1
  drug sensitivity score: 2.2
MDA-MB-231
  drug sensitivity score: 0
HCC1937
  drug sensitivity score: 0
MDA-MB-436
  drug sensitivity score: 0
Hs578T
  drug sensitivity score: 0

## C=CCn1c(=O)c2cnc(Nc3ccc(N4CCN(C)CC4)cc3)nc2n1-c1cccc(C(C)(C)O)n1 [MK1775]
BT-474
  drug sensitivity score: 13.9
SK-BR-3
  drug sensitivity score: 18.8
CAL-148
  drug sensitivity score: 19.3
BT-549
  drug sensitivity score: 15.7
DU-4475
  drug sensitivity score: 8.47
CAL-120
  drug sensitivity score: 12.1
HDQ-P1
  drug sensitivity score: 14.9
MFM-223
  drug sensitivity score: 12.4
MCF-10A
  drug sensitivity score: 9.77
HCC1143
  drug sensitivity score: 11.6
MDA-MB-468
  drug sensitivity score: 12.5
CAL-51
  drug sensitivity score: 15.5
HCC1599
  drug sensitivity score: 19.9
MDA-MB-453
  drug sensitivity score: 14.6
CAL-85-1
  drug sensitivity score: 16.2
MDA-MB-231
  drug sensitivity score: 15.7
HCC1937
  drug sensitivity score: 12.4
MDA-MB-436
  drug sensitivity score: 16.7
Hs578T
  drug sensitivity score: 14.5

## CN(C)C(=N)NC(=N)N [Metformin]
BT-474
  drug sensitivity score: 0
SK-BR-3
  drug sensitivity score: 0
CAL-148
  drug sensitivity score: 0
BT-549
  drug sensitivity score: 0
DU-4475
  drug sensitivity score: 0
CAL-120
  drug sensitivity score: 0
HDQ-P1
  drug sensitivity score: 0
MFM-223
  drug sensitivity score: 0
MCF-10A
  drug sensitivity score: 0
HCC1143
  drug sensitivity score: 0
MDA-MB-468
  drug sensitivity score: 0.63
CAL-51
  drug sensitivity score: 6.92
HCC1599
  drug sensitivity score: 0
MDA-MB-453
  drug sensitivity score: 0
CAL-85-1
  drug sensitivity score: 0
MDA-MB-231
  drug sensitivity score: 0
HCC1937
  drug sensitivity score: 0
MDA-MB-436
  drug sensitivity score: 0
Hs578T
  drug sensitivity score: 0
